Results taken from patent publication US20060069132A1, “Azolecarboxamide herbicides” (priority 2004, published 2006).

What was measured:
common purslane = test: Test E pre-/postemergence herbicide test; format: in vivo, Portulaca oleracea
Source text: (§1) Seeds of plant species selected from bipinnate beggarticks (Bidens bipinnata L.), hairy beggarticks (Bidens radiata Thuill.), bermudagrass (Cynodon dactylon (L.) Pers.), Surinam grass (Urochloa decumbens (Staph) R. D. Webster, previously named Brachiaria decumbens Stapf), large crabgrass (Digitaria sanguinalis (L.) Scop.), green foxtail (Setaria viridis (L.) P. Beauv.), goosegrass (Eleusine indica (L.) Gaertn.), johnsongrass (Sorghum halepense (L.) Pers.), kochia (Kochia scoparia (L.) Schrad.), pitted morningglory (Ipomoea lacunosa L.), purple nutsedge (Cyperus rotundus L.), common ragweed (Ambrosia elatior L.), mustard (Brassica nigra (L.) W. D. J. Koch), guineagrass (Panicum maximum Jacq.), dallisgrass (Paspalum dilatatum Poir.), barnyardgrass (Echinochloa crus-galli (L). P. Beauv.), southern sandbur (Cenchrus echinatus L.), common sowthistle (Sonchus oleraceous L.), prickly sida (Sida spinosa L.), Italian ryegrass (Lolium multiflorum Lam.), common purslane (Portulaca oleracea L.), broadleaf signalgrass (Brachiaria platyphylla (Griseb.) Nash), common groundsel (Senecio vulgaris L.), common chickweed (Stellaria media (L.) Vill/Cyr.), tropical spiderwort (Commelina benghalensis L.), annual bluegrass (Poa annua L.), downy bromegrass (Bromus tectorum L.), itchgrass (Rottboellia cochinchinensis (L.) L.f.), quackgrass (Elytrigia repens (L.) Nevski), Canada horseweed (Erigeron Canadensis L.), field bindweed (Convolvulus arvensis L.), spotted spurge (Euphorbia maculata L.), common mallow (Malva sylvestris (=s silvestris) L.), and Russian thistle (Salsola kali L. ssp. Ruthenica (Iljin) Soo) were planted and treated preemergence with test chemicals formulated in a non-phytotoxic solvent mixture which included a surfactant.
(§2) At the same time, plants selected from these weed species were treated with postemergence applications of some of the test chemicals formulated in the same manner. Plants ranged in height from 2 to 18 cm (1- to 4-leaf stage) for postemergence treatments. Treated plants and controls were maintained in a greenhouse for 12 to 14 days, after which time all species were compared to controls and visually evaluated. Plant response ratings, summarized in Table E, are based on a scale of 0 to 100 where 0 is no effect and 100 is complete control. A dash (-) response means no test result.

kochia [1] = test: Test E pre-/postemergence herbicide test; format: in vivo, Kochia scoparia
Source text: as §1, §2

[2] = tested on: corn (maize) cv. Pioneer 33G26; test: Test G safening on corn by naphthalic anhydride seed treatment, preemergence; format: in vivo, Zea mays
Source text: This test evaluated the safening of compounds of the invention on corn (maize; Zea mays L.) cv. ‘Pioneer 33G26’ by seed treatment with naphthalic anhydride (1,8-naphthalic anhydride). All corn seed had been first treated with fludioxonil and metaxyl applied at the manufacturer's recommended rate as per the Pioneer 33G26 label. Some of the corn seed were subsequently also treated with naphthalic anhydride as a 1% by weight seed dressing. The corn seed were planted in pots containing pasteurized Sassafras sandy loam soil, and then treatments were applied preemergence the same day. Treatments were applied by spraying the test compounds formulated in a non-phytotoxic solvent mixture, using a flat fan nozzle and a spray volume of 280 L/ha. The treatments were triply replicated and the results subsequently averaged. The pots were placed on a greenhouse bench using a complete randomized block design except for the first replicate, which was unrandomized. The plants were grown in the greenhouse and watered as needed with a dilute nutrient solution containing 200 ppm of N. Illumination was daylight supplemented by artificial sources to maintaining a photoperiod of 16 hours. The temperature was maintained at 28±2° C. during the day and 23±2° C. at night. The plant response was visually rated 25 days after treatment in comparison to untreated controls using a scale of 0 to 100, with 0 representing no effect and 100 representing complete plant death.

littleseed canarygrass = test: Test F pre-/postemergence herbicide test; format: in vivo, Phalaris minor
Source text: (§3) Seeds of plant species selected from annual blugrass (Poa annua L.), blackgrass (Alopecurus myosuroides Huds.), catchweed bedstraw (Gallium aparine L.), common chickweed (Stellaria media (L.) Vill./Cyr.), downy bromegrass (Bromus tectorum L.), green foxtail (Setaria viridis (L.) Beauv.), Italian ryegrass (Lolium multiflorum Lam.), kochia (Kochia scoparia (L.). Schrad.), lambsquarters (Chenopodium album L.), littleseed canarygrass (Phalaris minor Retz.), pigweed (Amaranthus retroflexus L.), Russian thistle (Salsola kali L. ssp. Ruthenica (Iljin) Soo), wild buckwheat (Polygonum convolvulus L.), wild mustard (Sinapis arvensis L.), wild oat (Avena fatua L.), windgrass (Apera spica-venti (L.) Beauv.), winter barley (Hordeum vulgare L.), and wheat (Triticum aestivum L.) were planted and treated preemergence with test chemicals formulated in a non-phytotoxic solvent mixture which included a surfactant.
as §2, with “these crop and” for “these”, “F,” for “E,”

wheat = test: Test F pre-/postemergence herbicide test; format: in vivo, Triticum aestivum
Source text: as §3
as §2, with “these crop and” for “these”, “F,” for “E,”

kochia [3] = test: Test F pre-/postemergence herbicide test; format: in vivo, Kochia scoparia
Source text: as §3
as §2, with “these crop and” for “these”, “F,” for “E,”

blackgrass = test: Test F pre-/postemergence herbicide test; format: in vivo, Alopecurus myosuroides
Source text: as §3
as §2, with “these crop and” for “these”, “F,” for “E,”

lambsquarters = test: Test F pre-/postemergence herbicide test; format: in vivo, Chenopodium album
Source text: as §3
as §2, with “these crop and” for “these”, “F,” for “E,”

[4] = Preemergence, 125 g ai/ha, scale 0 (no effect) to 100 (complete control)
[5] = Preemergence, 250 g ai/ha, scale 0 (no effect) to 100 (complete control)
[6] = Preemergence, 500 g ai/ha, scale 0 (no effect) to 100 (complete control)
[7] = Preemergence, 62 g ai/ha, scale 0 to 100
[8] = postemergence, 125 g ai/ha, scale 0 to 100
[9] = Postemergence, 500 g ai/ha, scale 0 to 100
[10] = Postemergence, 250 g ai/ha, scale 0 to 100
[11] = postemergence, 62 g ai/ha, scale 0 to 100
[12] = Preemergence, 125 g ai/ha, scale 0 to 100

CCNC(=O)c1ccc(F)c(NC(=O)c2cc(C(C)(C)C)nn2CC)c1 [Compound 2, 3-(1,1-dimethylethyl)-1-ethyl-N-[5-[(ethylamino)carbonyl]-2-fluorophenyl]-1H-pyrazole-5-carboxamide]
Plant response rating, Purslane (common purslane; [4]): 100 | Plant response rating, Purslane (common purslane; [5]): 100 | Plant response rating, Purslane (common purslane; [6]): 100 | Plant response rating, Kochia (kochia [1]; [7]): 90 | Plant response rating, Kochia (kochia [1]; [4]): 100 | Plant response rating, Kochia (kochia [1]; [5]): 100 | Plant response rating, Kochia (kochia [1]; [6]): 100 | Plant response rating, Kochia (kochia [1]; [8]): 100 | Response of corn, With 1% naphthalic anhydride seed treatment ([2]; 62 g a.i./ha): 50 | Response of corn, Without naphthalic anhydride seed treatment ([2]; 62 g a.i./ha): 65 | Response of corn, With 1% naphthalic anhydride seed treatment ([2]; 125 g a.i./ha): 55 | Response of corn, Without naphthalic anhydride seed treatment ([2]; 125 g a.i./ha): 72 | Response of corn, With 1% naphthalic anhydride seed treatment ([2]; 250 g a.i./ha): 68 | Response of corn, Without naphthalic anhydride seed treatment ([2]; 250 g a.i./ha): 78 | Response of corn, With 1% naphthalic anhydride seed treatment ([2]; 500 g a.i./ha): 72 | Response of corn, Without naphthalic anhydride seed treatment ([2]; 500 g a.i./ha): 85

CCn1nc(C(C)(C)C)cc1C(=O)Nc1cc(C(=S)N(C)C)ccc1F [Compound 294]
Plant response rating, Purslane (common purslane; [9]): 90 | Plant response rating, Purslane (common purslane; [10]): 90 | Plant response rating, Purslane (common purslane; [8]): 60 | Plant response rating, Purslane (common purslane; [11]): 10

CCn1nc(C(C)(C)C)cc1C(=O)Nc1cccc(C(N)=O)n1 [Compound 162, 6-[[[3-(1,1-dimethylethyl)-1-ethyl-1H-pyrazol-5-yl]carbonyl]amino]-2-pyridinecarboxamide]
Plant response rating (0-100), Canarygrass (littleseed canarygrass; Postemergence, 62 g ai/ha): 70 | Plant response rating (0-100), Canarygrass (littleseed canarygrass; Postemergence, 125 g ai/ha): 70 | Plant response rating (0-100), Canarygrass (littleseed canarygrass; Postemergence, 250 g ai/ha): 100 | Plant response rating (0-100), Canarygrass (littleseed canarygrass; Postemergence, 500 g ai/ha): 100 | Plant response rating (0-100), Canarygrass (littleseed canarygrass; Preemergence, 62 g ai/ha): 100 | Plant response rating (0-100), Canarygrass (littleseed canarygrass; Preemergence, 125 g ai/ha): 100 | Plant response rating (0-100), Canarygrass (littleseed canarygrass; Preemergence, 250 g ai/ha): 100 | Plant response rating (0-100), Canarygrass (littleseed canarygrass; Preemergence, 500 g ai/ha): 100 | Plant response rating (0-100), Wheat (wheat; Postemergence, 62 g ai/ha): 20 | Plant response rating (0-100), Wheat (wheat; Postemergence, 125 g ai/ha): 40 | Plant response rating (0-100), Wheat (wheat; Postemergence, 250 g ai/ha): 50 | Plant response rating (0-100), Wheat (wheat; Postemergence, 500 g ai/ha): 70 | Plant response rating (0-100), Wheat (wheat; Preemergence, 62 g ai/ha): 60 | Plant response rating (0-100), Wheat (wheat; Preemergence, 125 g ai/ha): 100 | Plant response rating (0-100), Wheat (wheat; Preemergence, 250 g ai/ha): 100 | Plant response rating (0-100), Wheat (wheat; Preemergence, 500 g ai/ha): 100 | Plant response rating (0-100), Kochia (kochia [3]; Postemergence, 62 g ai/ha): 100 | Plant response rating (0-100), Kochia (kochia [3]; Postemergence, 125 g ai/ha): 100 | Plant response rating (0-100), Kochia (kochia [3]; Postemergence, 250 g ai/ha): 100 | Plant response rating (0-100), Kochia (kochia [3]; Postemergence, 500 g ai/ha): 100 | Plant response rating (0-100), Kochia (kochia [3]; Preemergence, 62 g ai/ha): 60 | Plant response rating (0-100), Kochia (kochia [3]; Preemergence, 125 g ai/ha): 100 | Plant response rating (0-100), Kochia (kochia [3]; Preemergence, 250 g ai/ha): 100 | Plant response rating (0-100), Kochia (kochia [3]; Preemergence, 500 g ai/ha): 100 | Plant response rating, Purslane (common purslane; [7]): 100 | Plant response rating, Purslane (common purslane; [12]): 100 | Plant response rating, Purslane (common purslane; [5]): 100 | Plant response rating, Purslane (common purslane; [6]): 100 | Plant response rating (0-100), Blackgrass (blackgrass; Postemergence, 62 g ai/ha): 70 | Plant response rating (0-100), Blackgrass (blackgrass; Postemergence, 125 g ai/ha): 80 | Plant response rating (0-100), Blackgrass (blackgrass; Postemergence, 250 g ai/ha): 100 | Plant response rating (0-100), Blackgrass (blackgrass; Postemergence, 500 g ai/ha): 100 | Plant response rating (0-100), Blackgrass (blackgrass; Preemergence, 62 g ai/ha): 90 | Plant response rating (0-100), Blackgrass (blackgrass; Preemergence, 125 g ai/ha): 100 | Plant response rating (0-100), Blackgrass (blackgrass; Preemergence, 250 g ai/ha): 100 | Plant response rating (0-100), Blackgrass (blackgrass; Preemergence, 500 g ai/ha): 100 | Plant response rating (0-100), Lambsquarters (lambsquarters; Postemergence, 62 g ai/ha): 100 | Plant response rating (0-100), Lambsquarters (lambsquarters; Postemergence, 125 g ai/ha): 100 | Plant response rating (0-100), Lambsquarters (lambsquarters; Postemergence, 250 g ai/ha): 100 | Plant response rating (0-100), Lambsquarters (lambsquarters; Postemergence, 500 g ai/ha): 100 | Plant response rating (0-100), Lambsquarters (lambsquarters; Preemergence, 62 g ai/ha): 100 | Plant response rating (0-100), Lambsquarters (lambsquarters; Preemergence, 125 g ai/ha): 100 | Plant response rating (0-100), Lambsquarters (lambsquarters; Preemergence, 250 g ai/ha): 100 | Plant response rating (0-100), Lambsquarters (lambsquarters; Preemergence, 500 g ai/ha): 100 | Plant response rating, Kochia (kochia [1]; [7]): 60 | Plant response rating, Kochia (kochia [1]; [12]): 70 | Plant response rating, Kochia (kochia [1]; [5]): 95 | Plant response rating, Kochia (kochia [1]; [6]): 95 | Response of corn, With 1% naphthalic anhydride seed treatment ([2]; 62 g a.i./ha): 0 | Response of corn, Without naphthalic anhydride seed treatment ([2]; 62 g a.i./ha): 15 | Response of corn, With 1% naphthalic anhydride seed treatment ([2]; 125 g a.i./ha): 25 | Response of corn, Without naphthalic anhydride seed treatment ([2]; 125 g a.i./ha): 30 | Response of corn, With 1% naphthalic anhydride seed treatment ([2]; 250 g a.i./ha): 60 | Response of corn, Without naphthalic anhydride seed treatment ([2]; 250 g a.i./ha): 68 | Response of corn, With 1% naphthalic anhydride seed treatment ([2]; 500 g a.i./ha): 63 | Response of corn, Without naphthalic anhydride seed treatment ([2]; 500 g a.i./ha): 85

CCn1nc(C2(C)CC2)cc1C(=O)Nc1cc(C(=O)N(C)C)ccc1F [Compound 299]
Plant response rating, Purslane (common purslane; [9]): 100 | Plant response rating, Purslane (common purslane; [10]): 80 | Plant response rating, Purslane (common purslane; [8]): 75 | Plant response rating, Purslane (common purslane; [11]): 70

CCc1nn(C(C)(C)C)cc1C(=O)Nc1cc(C(=O)N(CC)CC)ccc1F [Compound 223]
Plant response rating (0-100), Canarygrass (littleseed canarygrass; Postemergence, 125 g ai/ha): 40 | Plant response rating (0-100), Canarygrass (littleseed canarygrass; Preemergence, 125 g ai/ha): 50 | Plant response rating (0-100), Wheat (wheat; Postemergence, 125 g ai/ha): 0 | Plant response rating (0-100), Wheat (wheat; Preemergence, 125 g ai/ha): 0 | Plant response rating (0-100), Kochia (kochia [3]; Postemergence, 125 g ai/ha): 75 | Plant response rating (0-100), Kochia (kochia [3]; Preemergence, 125 g ai/ha): 75 | Plant response rating (0-100), Blackgrass (blackgrass; Postemergence, 125 g ai/ha): 60 | Plant response rating (0-100), Blackgrass (blackgrass; Preemergence, 125 g ai/ha): 70 | Plant response rating (0-100), Lambsquarters (lambsquarters; Postemergence, 125 g ai/ha): 65 | Plant response rating (0-100), Lambsquarters (lambsquarters; Preemergence, 125 g ai/ha): 95

CCNC(=O)c1cccc(NC(=O)c2nn(C(C)(C)C)nc2C)c1 [Compound 392]
Plant response rating, Purslane (common purslane; [12]): 90 | Plant response rating, Purslane (common purslane; [5]): 100 | Plant response rating, Purslane (common purslane; [6]): 100
